The record followed here is US12643871B2, “Aryl formamide compound containing chiral sulfur oxide or salt thereof, preparation method, herbicidal composition and use thereof” (Qingdao Kingagroot Chemical Compound Co., Ltd., priority 2019, dated 2026).

Assay in all cases: Weeding effect in post-emergence stage
What all share (format): in vivo
Holding throughout (settings): 250 g/ha; 2 leaf stage; 15 days after application; fresh weight control rate

The subject of assay [1] is Amaranthus retroflexus. The essentials: (§1)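 Greenhouse pot-grown weeds were sprayed at the 2-leaf stage, 2 weeks after sowing, with compound in acetone/Tween 80 plus 1.5 L/ha methyl oleate EC, at 500, 250, 125, 60, 30 or 15 g/ha. Fresh-weight growth control was scored 15 days later on a 0–5 scale, mean of three repeats.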
The test system of assay [2] is Echinochloa crusgali. In a few lines:
as §1

For assay [3], the system named is Digitaria sanguinalis. The essentials: as §1
Assay [4] has as its system Setaria viridis. The essentials:
as §1

The subject of assay [5] is Abutilon theophrasti. In a few lines: as §1

As for `CCC[S@@+]([O-])c1c(C(F)(F)F)ccc(C(=O)Nc2nnco2)c1F` [Compound 357], the “weeding effect in post-emergence stage, activity level (growth control rate), Amaranthus retroflexus” value (from here on “weeding effect … Amaranthus retroflexus”) in assay [1] was 5 (Level 5: growth control rate is above 85%). The “weeding effect in post-emergence stage, activity level (growth control rate), Echinochloa crusgali” value (“weeding effect … Echinochloa crusgali” below) in assay [2] was 5 (Level 5: growth control rate is above 85%). The “weeding effect in post-emergence stage, activity level (growth control rate), Digitaria sanguinalis” value (“weeding effect … Digitaria sanguinalis” for short) in assay [3] is 5 (Level 5: growth control rate is above 85%). Further, the “weeding effect in post-emergence stage, activity level (growth control rate), Setaria viridis” value (shortened to “weeding effect … Setaria viridis”) in assay [4] is reported as 5 (Level 5: growth control rate is above 85%). The “weeding effect in post-emergence stage, activity level (growth control rate), Abutilon theophrasti” value (from here on “weeding effect … Abutilon theophrasti”) in assay [5] is 5 (Level 5: growth control rate is above 85%).
Regarding `Cc1nnc(NC(=O)c2ccc(C(F)(F)F)c([S@+]([O-])CCC(F)(F)C(F)(F)F)c2F)o1` [Compound 35], the “weeding effect … Amaranthus retroflexus” value in assay [1] is recorded as 5 (Level 5: growth control rate is above 85%). The “weeding effect … Echinochloa crusgali” value in assay [2] was 5 (Level 5: growth control rate is above 85%). Moreover, the “weeding effect … Digitaria sanguinalis” value in assay [3] is 5 (Level 5: growth control rate is above 85%). In assay [4], the “weeding effect … Setaria viridis” value was 5 (Level 5: growth control rate is above 85%). The “weeding effect … Abutilon theophrasti” value in assay [5] is 5 (Level 5: growth control rate is above 85%).
For the compound `COc1c(C(=O)Nc2nnc(C)o2)ccc(C(F)(F)F)c1[S@+]([O-])CCF` [Compound 319], the “weeding effect … Amaranthus retroflexus” value in assay [1] is listed as 5 (Level 5: growth control rate is above 85%). For the same compound, the “weeding effect … Echinochloa crusgali” value in assay [2] is 5 (Level 5: growth control rate is above 85%). Moreover, the “weeding effect … Digitaria sanguinalis” value in assay [3] was 5 (Level 5: growth control rate is above 85%). For the same compound, in assay [4], the “weeding effect … Setaria viridis” value is on record as 5 (Level 5: growth control rate is above 85%). For the same compound, in assay [5], the “weeding effect … Abutilon theophrasti” value is 5 (Level 5: growth control rate is above 85%).
On to `CSc1c(C(=O)Nc2nnc(C)o2)ccc(C(F)(F)F)c1[S@+]([O-])CC(C)F` (stereo partly shown) [Compound 557], for which the “weeding effect … Amaranthus retroflexus” value in assay [1] was 5 (Level 5: growth control rate is above 85%). Besides, in assay [2], the “weeding effect … Echinochloa crusgali” value is on record as 5 (Level 5: growth control rate is above 85%). The “weeding effect … Digitaria sanguinalis” value in assay [3] is 5 (Level 5: growth control rate is above 85%). Further, the “weeding effect … Setaria viridis” value in assay [4] is given as 5 (Level 5: growth control rate is above 85%). Besides, the “weeding effect … Abutilon theophrasti” value in assay [5] is given as 5 (Level 5: growth control rate is above 85%).
Turning to `COc1c(C(=O)Nc2nnc(C)o2)ccc(C(F)(F)F)c1[S@+]([O-])CCCF` [Compound 320], in assay [1], the “weeding effect … Amaranthus retroflexus” value is listed as 5 (Level 5: growth control rate is above 85%). Moreover, the “weeding effect … Echinochloa crusgali” value in assay [2] is given as 5 (Level 5: growth control rate is above 85%). Further, the “weeding effect … Digitaria sanguinalis” value in assay [3] is 5 (Level 5: growth control rate is above 85%). For the same compound, the “weeding effect … Setaria viridis” value in assay [4] is given as 5 (Level 5: growth control rate is above 85%). Besides, the “weeding effect … Abutilon theophrasti” value in assay [5] is reported as 5 (Level 5: growth control rate is above 85%).
For `C=CCC[S@@+]([O-])c1c(C(F)(F)F)ccc(C(=O)Nc2nnc(C)o2)c1OC` [Compound 312], the “weeding effect … Amaranthus retroflexus” value in assay [1] is 5 (Level 5: growth control rate is above 85%). For the same compound, in assay [2], the “weeding effect … Echinochloa crusgali” value was 5 (Level 5: growth control rate is above 85%). Moreover, the “weeding effect … Digitaria sanguinalis” value in assay [3] is recorded as 5 (Level 5: growth control rate is above 85%). In addition, the “weeding effect … Setaria viridis” value in assay [4] is reported as 5 (Level 5: growth control rate is above 85%). For the same compound, the “weeding effect … Abutilon theophrasti” value in assay [5] was 5 (Level 5: growth control rate is above 85%).
For `CCCCCC[S@@+]([O-])c1c(C(F)(F)F)ccc(C(=O)Nc2nnc(C)o2)c1F` [Compound 12], the “weeding effect … Amaranthus retroflexus” value in assay [1] is listed as 5 (Level 5: growth control rate is above 85%). In assay [2], the “weeding effect … Echinochloa crusgali” value is recorded as 5 (Level 5: growth control rate is above 85%). Further, in assay [3], the “weeding effect … Digitaria sanguinalis” value was 3 (Level 3: growth control rate is greater than or equal to 40% and less than 60%). For the same compound, the “weeding effect … Setaria viridis” value in assay [4] was 3 (Level 3: growth control rate is greater than or equal to 40% and less than 60%). Moreover, the “weeding effect … Abutilon theophrasti” value in assay [5] was 5 (Level 5: growth control rate is above 85%).
`CSC[S@+]([O-])c1c(C(F)(F)F)ccc(C(=O)Nc2nnc(C)o2)c1F` [Compound 203]: in assay [1], the “weeding effect … Amaranthus retroflexus” value is given as 5 (Level 5: growth control rate is above 85%). Also, in assay [2], the “weeding effect … Echinochloa crusgali” value was 5 (Level 5: growth control rate is above 85%). Moreover, the “weeding effect … Digitaria sanguinalis” value in assay [3] was 5 (Level 5: growth control rate is above 85%). Further, in assay [4], the “weeding effect … Setaria viridis” value is reported as 5 (Level 5: growth control rate is above 85%). The “weeding effect … Abutilon theophrasti” value in assay [5] was 5 (Level 5: growth control rate is above 85%).
On to `COc1c(C(=O)Nc2nnc(C)o2)ccc(C(F)(F)F)c1[S@+]([O-])C1COC1` [Compound 346], for which the “weeding effect … Amaranthus retroflexus” value in assay [1] was 5 (Level 5: growth control rate is above 85%). For the same compound, the “weeding effect … Echinochloa crusgali” value in assay [2] is 5 (Level 5: growth control rate is above 85%). Besides, in assay [3], the “weeding effect … Digitaria sanguinalis” value was 5 (Level 5: growth control rate is above 85%). Further, the “weeding effect … Setaria viridis” value in assay [4] was 5 (Level 5: growth control rate is above 85%). Further, the “weeding effect … Abutilon theophrasti” value in assay [5] is reported as 5 (Level 5: growth control rate is above 85%).
As to `CSc1c(C(=O)Nc2nnc(C)o2)ccc(C(F)(F)F)c1[S@+]([O-])CC#N` [Compound 564], the “weeding effect … Amaranthus retroflexus” value in assay [1] was 5 (Level 5: growth control rate is above 85%). In addition, in assay [2], the “weeding effect … Echinochloa crusgali” value was 5 (Level 5: growth control rate is above 85%). The “weeding effect … Digitaria sanguinalis” value in assay [3] was 5 (Level 5: growth control rate is above 85%). For the same compound, the “weeding effect … Setaria viridis” value in assay [4] is listed as 5 (Level 5: growth control rate is above 85%). Moreover, the “weeding effect … Abutilon theophrasti” value in assay [5] is 5 (Level 5: growth control rate is above 85%).
As to `COc1c(C(=O)Nc2nnc(C)o2)ccc(C(F)(F)F)c1[S@@+]([O-])C(F)(C(F)(F)F)C(F)(F)F` [Compound 330], the “weeding effect … Amaranthus retroflexus” value in assay [1] was 5 (Level 5: growth control rate is above 85%). Also, the “weeding effect … Echinochloa crusgali” value in assay [2] is given as 5 (Level 5: growth control rate is above 85%). For the same compound, the “weeding effect … Digitaria sanguinalis” value in assay [3] is 5 (Level 5: growth control rate is above 85%). In assay [4], the “weeding effect … Setaria viridis” value was 5 (Level 5: growth control rate is above 85%). Further, the “weeding effect … Abutilon theophrasti” value in assay [5] is on record as 5 (Level 5: growth control rate is above 85%).
For `CCC[S@@+]([O-])c1c(C(F)(F)F)ccc(C(=O)Nc2nnc(C)o2)c1OC(C)C` [Compound 534], the “weeding effect … Amaranthus retroflexus” value in assay [1] was 5 (Level 5: growth control rate is above 85%). The “weeding effect … Echinochloa crusgali” value in assay [2] is recorded as 5 (Level 5: growth control rate is above 85%). For the same compound, in assay [3], the “weeding effect … Digitaria sanguinalis” value is recorded as 5 (Level 5: growth control rate is above 85%). For the same compound, the “weeding effect … Setaria viridis” value in assay [4] is on record as 5 (Level 5: growth control rate is above 85%). The “weeding effect … Abutilon theophrasti” value in assay [5] is listed as 5 (Level 5: growth control rate is above 85%).
In the case of `COc1c(C(=O)Nc2nnc(C)o2)ccc(C(F)(F)F)c1[S@+]([O-])CC(F)(F)F` [Compound 324], the “weeding effect … Amaranthus retroflexus” value in assay [1] was 5 (Level 5: growth control rate is above 85%). For the same compound, the “weeding effect … Echinochloa crusgali” value in assay [2] is on record as 5 (Level 5: growth control rate is above 85%). The “weeding effect … Digitaria sanguinalis” value in assay [3] is on record as 5 (Level 5: growth control rate is above 85%). For the same compound, the “weeding effect … Setaria viridis” value in assay [4] is 5 (Level 5: growth control rate is above 85%). For the same compound, the “weeding effect … Abutilon theophrasti” value in assay [5] is listed as 5 (Level 5: growth control rate is above 85%).
Consider `COc1c(C(=O)Nc2nnc(C)o2)ccc(C(F)(F)F)c1[S@@+]([O-])C(F)(F)C(F)(F)F` [Compound 327], for which the “weeding effect … Amaranthus retroflexus” value in assay [1] is recorded as 5 (Level 5: growth control rate is above 85%). Further, the “weeding effect … Echinochloa crusgali” value in assay [2] is 5 (Level 5: growth control rate is above 85%). Also, in assay [3], the “weeding effect … Digitaria sanguinalis” value is given as 5 (Level 5: growth control rate is above 85%). Besides, the “weeding effect … Setaria viridis” value in assay [4] is on record as 5 (Level 5: growth control rate is above 85%). Besides, the “weeding effect … Abutilon theophrasti” value in assay [5] was 5 (Level 5: growth control rate is above 85%).
